IC50, AC50 and EC50 data for 4 compounds are collected here from ChEMBL document CHEMBL1201862, “PubChem BioAssay data set” (2004).

For one experiment, the system named is HEK293. In words: HEK293T cell viability loss, resazurin readout – resazurin fluorescence, cytotoxicity control for NF-kB activator project, SAR follow-up (AID 493251). It is filed as functional, cell-based. As to conditions: Homo sapiens. A general note: Alamar Blue is a resazurin reagent that responds to reducing activity.
A further experiment has as its system HeLa. In words: ATP-based viability loss in HeLa cells – cell-based, CellTiter-Glo luminescence, cherry-pick samples, cytotoxicity control for MITF activator project, dose response (AID 540259). It is filed as functional. As to conditions: Homo sapiens. In general terms: ATP-based viability assays read luminescence as a measure of living cells.
Another experiment in a line: cells. It is filed as functional.
The target of experiment [1] is Beta-2 adrenergic receptor (Homo sapiens, UniProt P07550). The experiment in a line: ADRB2 activation measured by internalization – cell-based, FAP fluorogen, flow cytometry, cherry pick 1, dose response (AID 588763). It is filed as functional. In general terms: In flow cytometry, cells or beads pass a laser one at a time.

SMILES strings stand for the structures. Calls of active or inactive are those of the source.

Beta-2 adrenergic receptor, sequence (P07550 whole entry): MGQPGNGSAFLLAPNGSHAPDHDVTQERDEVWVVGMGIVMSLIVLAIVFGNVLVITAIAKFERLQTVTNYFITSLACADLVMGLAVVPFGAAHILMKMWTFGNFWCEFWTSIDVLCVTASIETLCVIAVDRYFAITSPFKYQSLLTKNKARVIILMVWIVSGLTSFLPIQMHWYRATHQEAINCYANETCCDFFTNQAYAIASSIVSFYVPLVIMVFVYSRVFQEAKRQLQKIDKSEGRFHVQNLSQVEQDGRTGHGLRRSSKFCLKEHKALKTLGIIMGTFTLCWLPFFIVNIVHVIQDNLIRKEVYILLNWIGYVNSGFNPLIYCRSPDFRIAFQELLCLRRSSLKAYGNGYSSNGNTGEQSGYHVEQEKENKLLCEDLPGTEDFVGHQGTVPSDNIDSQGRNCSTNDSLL

For the compound `COC(=O)CCc1nc(-c2ccc(C(C)(C)C)cc2)no1`, the IC50 (usually the midpoint of a concentration-inhibition curve) in the experiment with HEK293 was > 80 µM (inactive).

Take `Cc1ccc(Nc2ncnc3ccccc23)cc1`: the AC50 – broadly, the concentration at which the activity in the assay is half-maximal – in the experiment with HeLa was 154 µM (active).

Turning to `O=C(NCCC1=CCCCC1)c1ccc(-n2cncn2)cc1`, the AC50 in the experiment on HeLa was > 350 µM (inactive).

Consider `COc1cccc(OCc2nnc(-c3cccs3)o2)c1`, for which the IC50 in “cells” was 5.57 µM (active). Also, the EC50 (usually the concentration giving half of the maximal effect) in experiment [1] was 10.7 µM (inactive).
